Experimental data taken from US4557871A, “Novel styrene derivatives of the general formula” (Taisho Pharmaceutical Co., Ltd., priority 1983, dated 1985).
Read-outs that look alike come from different tables or passages of the source.

What was measured:
edema in left hind paw [1] = test: Carrageenin-induced hind paw edema in rats, test compound orally 1 hour before (Winter's method), anti-inflammatory activity; format: in vivo, Male Wistar rats; details: paw volume 3 hours after carrageenin; for inhibition at 6 mg/kg: Rattus norvegicus, po
Protocol: Anti-inflammatory activity was evaluated by the Winter's method [Journal of Pharmacology and Experimental Therapeutics, volume 141, page 369(1963)]. Male Wistar rats (group of 6 animals) were administered orally the test compounds (dose: 6 mg/kg) one hour before inducing the edema in left hind paw with 0.1 ml of a 1% carrageenin-saline suspension. Volumes of the hind paws were determined with a volume meter 3 hours after the injection of carrageenin. Indomethacin (Control 1) and 4-vinylphenylacetic acid (Control 2) were used as controls.

edema in left hind paw [2] = test: Duration of inhibition of carrageenin-induced hind paw edema, test compound orally 1, 24 or 48 hours before inducing the edema; format: in vivo, Male Wistar rats; details: Rattus norvegicus; for inhibition at 30 mg/kg: dose 30 mg/kg oral; for inhibition at 1.5 mg/kg: dose 1.5 mg/kg oral; for inhibition at 3 mg/kg: po; for inhibition at 6 mg/kg: dose 6 mg/kg oral
Protocol: Anti-inflammatory activity was evaluated by the Winter's method [Journal of Pharmacology and Experimental Therapeutics, volume 141, page 369(1963)]. […] Volumes of the hind paws were determined with a volume meter 3 hours after the injection of carrageenin. Indomethacin (Control 1) and 4-vinylphenylacetic acid (Control 2) were used as controls.
Following a procedure similar to that of Test example 1, the test compounds were administered orally to the rats 1, 24 or 48 hours before inducing the edema, and there was obtained a result shown in Table 2.

[3] = 6 mg/kg oral, one hour before carrageenin, read-out: Inhibition of edema
[4] = 6 mg/kg oral, one hour before carrageenin
[5] = read-out: Inhibition of edema, 6 mg/kg oral, one hour before carrageenin
[6] = 1 hr before inducing edema, read-out: Inhibition of edema, 1 hr
[7] = 24 hrs before inducing edema, read-out: Inhibition of edema, 24 hrs
[8] = 48 hrs before inducing edema, read-out: Inhibition of edema, 48 hrs

Work on CC(C)=CCC/C(C)=C/COC(=O)C(C)c1ccc(C=C(Cl)Cl)c(Cl)c1 (centres unmarked) [ST-62, Geranyl 2-[3-chloro-4-(2,2-dichlorovinyl)phenyl]propionate] yielded an inhibition at 6 mg/kg (edema in left hind paw [1]; [3]) of 43.2%.
CC(=O)OC(C)OC(=O)C(C)c1ccc(C=C(Cl)Cl)cc1 (centres unmarked) [ST-45, 1-(Acetoxy)ethyl 2-[4-(2,2-dichlorovinyl)phenyl]propionate] was tested, and the inhibition at 6 mg/kg (edema in left hind paw [1]; [3]) was 44.8%.
CC(C(=O)OC1OC(=O)c2ccccc21)c1ccc(C=C(Cl)Cl)cc1 (centres unmarked) [ST-49, 2-Phthalidyl 2-[4-(2,2-dichlorovinyl)phenyl]propionate] gave an inhibition at 6 mg/kg (edema in left hind paw [1]; [3]) of 53.3%.
With CC(C)CCOC(=O)C(C)c1ccc(C=C(Cl)Cl)cc1 (centres unmarked) [ST-42, Isopentyl 2-[4-(2,2-dichlorovinyl)phenyl]propionate] the inhibition at 6 mg/kg (edema in left hind paw [1]; [3]) was 60.4%.
Work on CC(C(=O)OCCO)c1ccc(C=C(Cl)Cl)cc1 (centres unmarked) [ST-59, 2-Hydroxyethyl 2-[4-(2,2-dichlorovinyl)phenyl]propionate] yielded an inhibition at 6 mg/kg (edema in left hind paw [1]; [3]) of 57.3%.
For CC(C(=O)NO)c1ccc(C=C(Cl)Cl)cc1 (centres unmarked) [ST-34, 2-[4-(2,2-dichlorovinyl)phenyl]propionylhydroxamic acid], the inhibition at 6 mg/kg (edema in left hind paw [1]; [3]) was 32.5%.
CC(C(=O)O)c1ccc(C=C(Cl)Cl)cc1 (centres unmarked) [ST-39, 2-Pyridylammonium 2-[4-(2,2-dichlorovinyl)phenyl]propionate] showed an Inhibition of edema (edema in left hind paw [1]; [4]) of 51.4%.
O=C(O)Cc1ccc(C=C(Cl)Cl)cc1 [ST-2, 4-(2,2-Dichlorovinyl)phenylacetic acid] was tested, and the inhibition at 6 mg/kg (edema in left hind paw [1]; [3]) was 63.9%.
CC(C(=O)O)c1ccc(C=C(Cl)Cl)cc1 (centres unmarked) [ST-37, Aluminum 2-[4-(2,2-dichlorovinyl)phenyl]propionate] gave an Inhibition of edema (edema in left hind paw [1]; [4]) of 63.1%.
In the case of CC(C(=O)O)c1ccc(C=C(F)F)cc1 (centres unmarked) [ST-7, 2-[4-(2,2-difluorovinyl)phenyl]propionic acid], the inhibition at 6 mg/kg (edema in left hind paw [1]; [3]) is reported as 48.4%.
Work on CC(C(=O)O)c1ccc(C=C(Cl)Cl)cc1 (centres unmarked) [ST-35, sodium 2-[4-(2,2-dichlorovinyl)phenyl]propionate] yielded an inhibition at 6 mg/kg (edema in left hind paw [1]; [5]) of 46%.
Work on CC(C)=CCCC(C)=CCCC(C)=CCOC(=O)C(C)c1ccc(C=C(Cl)Cl)cc1 (centres unmarked) [ST-60, Farnesyl 2-[4-(2,2-dichlorovinyl)phenyl]propionate] yielded an inhibition at 6 mg/kg (edema in left hind paw [1]; [3]) of 50.8%.
In the case of CC(C)=CCOC(=O)C(C)c1ccc(C=C(Cl)Cl)c(F)c1 (centres unmarked) [ST-50, Prenyl 2-[4-(2,2-dichlorovinyl)-3-fluorophenyl]propionate], the inhibition at 6 mg/kg (edema in left hind paw [1]; [3]) is reported as 61.4%.
CCOC(=O)C(C)c1ccc(C=C(Cl)Cl)c(F)c1 (centres unmarked) [ST-55, ethyl 2-[4-(2,2-dichlorovinyl)-3-fluorophenyl]propionate] was tested, and the inhibition at 6 mg/kg (edema in left hind paw [1]; [3]) was 38.2%.
In the case of CCNC(=O)C(C)c1ccc(C=C(Cl)Cl)cc1 (centres unmarked) [ST-25, N-Ethyl-2-[4-(2,2-dichlorovinyl)phenyl]propionamide], the inhibition at 6 mg/kg (edema in left hind paw [1]; [3]) is reported as 37.1%.
CCOC(=O)C(C)c1ccc(C=C(Cl)Cl)cc1 (centres unmarked) [ST-5, ethyl 2-[4-(2,2-dichlorovinyl)phenyl]propionate] gave an inhibition at 6 mg/kg (edema in left hind paw [1]; [3]) of 46.5%.
Molecule CCCCCCCCCCCCCCCC(=O)OC(C)OC(=O)C(C)c1ccc(C=C(Cl)Cl)cc1 (centres unmarked) [ST-48, 1-(Palmitoyloxy)ethyl 2-[4-(2,2-dichlorovinyl)phenyl]propionate] has an inhibition at 6 mg/kg (edema in left hind paw [1]; [3]) of 32.7%.
With Cc1ccc(NC(=O)C(C)c2ccc(C=C(Cl)Cl)cc2)cc1 (centres unmarked) [ST-14, N-(4-Methylphenyl)-2-[4-(2,2-dichlorovinyl)phenyl]propionamide] the inhibition at 6 mg/kg (edema in left hind paw [1]; [3]) was 33.6%.
In the case of CC(C(=O)Nc1ccc(F)cc1)c1ccc(C=C(Cl)Cl)cc1 (centres unmarked) [ST-17, N-(4-Fluorophenyl)-2-[4-(2,2-dichlorovinyl)phenyl]propionamide], the inhibition at 6 mg/kg (edema in left hind paw [1]; [3]) is reported as 40%.
For CC(C(=O)NCC(=O)O)c1ccc(C=C(Cl)Cl)cc1 (centres unmarked) [ST-24, N-{2-[4-(2,2-Dichlorovinyl)phenyl]propionyl}glycine], the inhibition at 6 mg/kg (edema in left hind paw [1]; [3]) was 30%.
CC(C(=O)OC1CCCCC1)c1ccc(C=C(Cl)Cl)cc1 (centres unmarked) [ST-61, Cyclohexyl 2-[4-(2,2-dichlorovinyl)phenyl]propionate] gave an inhibition at 6 mg/kg (edema in left hind paw [1]; [3]) of 43.7%.
CCC(=O)OCOC(=O)C(C)c1ccc(C=C(Cl)Cl)cc1 (centres unmarked) [ST-46, Propionyloxymethyl 2-[4-(2,2-dichlorovinyl)phenyl]propionate] was tested, and the inhibition at 6 mg/kg (edema in left hind paw [1]; [3]) was 32.2%.
With CC(C(=O)Nc1ccc(Cl)cc1)c1ccc(C=C(Cl)Cl)cc1 (centres unmarked) [ST-16, N-(4-Chlorophenyl)-2-[4-(2,2-dichlorovinyl)phenyl]propionamide] the inhibition at 6 mg/kg (edema in left hind paw [1]; [3]) was 43.1%.
In the case of C=Cc1ccc(CC(=O)O)cc1 [Control 2, 4-vinylphenylacetic acid], the inhibition at 6 mg/kg (edema in left hind paw [1]; [3]) is reported as 15.7%, the inhibition at 30 mg/kg (edema in left hind paw [2]; [6]) is reported as 40.2% and the inhibition at 30 mg/kg (edema in left hind paw [2]; [7]) is reported as 1.3%. It also gave an inhibition at 30 mg/kg (edema in left hind paw [2]; [8]) of -3.5%.
For CC(C(=O)O)c1cccc(C=C(Cl)Cl)c1 (centres unmarked) [ST-4, 2-[3-(2,2-Dichlorovinyl)phenyl]propionic acid], the inhibition at 6 mg/kg (edema in left hind paw [1]; [3]) was 32%.
For CCOC(=O)C(C)c1ccc(C=C(Cl)Cl)c(Cl)c1 (centres unmarked) [ST-56, Ethyl 2-[3-chloro-4-(2,2-dichlorovinyl)phenyl]propionate], the inhibition at 6 mg/kg (edema in left hind paw [1]; [3]) was 39.4%.
Work on CC(C)=CCC/C(C)=C/COC(=O)C(C)c1ccc(C=C(Cl)Cl)cc1 (centres unmarked) [ST-58, geranyl 2-[4-(2,2-dichlorovinyl)phenyl]propionate] yielded an inhibition at 6 mg/kg (edema in left hind paw [1]; [3]) of 39%.
Molecule CC(C(N)=O)c1ccc(C=C(Cl)Cl)cc1 (centres unmarked) [ST-11, 2-[4-(2,2-dichlorovinyl)phenyl]propionamide] has an inhibition at 6 mg/kg (edema in left hind paw [1]; [3]) of 26.5%.
For CC(CO)c1ccc(C=C(Cl)Cl)cc1 (centres unmarked) [ST-10, 2-[4-(2,2-dichlorovinyl)phenyl]propanol], the inhibition at 6 mg/kg (edema in left hind paw [1]; [3]) was 62.4%.
For CC(C(=O)O)c1ccc(C=C(Cl)Cl)cc1 (centres unmarked) [ST-36, calcium 2-[4-(2,2-dichlorovinyl)phenyl]propionate], the Inhibition of edema (edema in left hind paw [1]; [4]) was 43.0%.
Molecule CC(C(=O)O)c1ccc(C=C(Cl)Cl)c(F)c1 (centres unmarked) [ST-8, 2-[4-(2,2-dichlorovinyl)-3-fluorophenyl]propionic acid] has an inhibition at 6 mg/kg (edema in left hind paw [1]; [3]) of 64.8%.
CC(C(=O)O)c1ccc(C=C(Cl)Cl)cc1 (centres unmarked) [ST-1, 2-[4-(2,2-dichlorovinyl)phenyl]propionic acid] gave an Inhibition of edema (edema in left hind paw [1]; [4]) of 66.1%, an inhibition at 1.5 mg/kg (edema in left hind paw [2]; [6]) of 42.6% and an inhibition at 1.5 mg/kg (edema in left hind paw [2]; [7]) of 31.1%. It also gave an inhibition at 1.5 mg/kg (edema in left hind paw [2]; [8]) of 25.3%.
O=C(O)Cc1cccc(C=C(Cl)Cl)c1 [ST-3, 3-(2,2-Dichlorovinyl)phenylacetic acid] showed an inhibition at 6 mg/kg (edema in left hind paw [1]; [3]) of 31.9%.
For CC(C)=CCOC(=O)C(C)c1ccc(C=C(Cl)Cl)cc1 (centres unmarked) [ST-41, prenyl 2-[4-(2,2-dichlorovinyl)phenyl]propionate], the inhibition at 6 mg/kg (edema in left hind paw [1]; [3]) was 48.8%.
Molecule COc1ccc2c(c1)c(CC(=O)O)c(C)n2C(=O)c1ccc(Cl)cc1 [Control 1, Indomethacin] has an Inhibition of edema (edema in left hind paw [1]; [4]) of 59.3%, an inhibition at 6 mg/kg (edema in left hind paw [1]; [5]) of 68.2% and an inhibition at 3 mg/kg (edema in left hind paw [2]; read-out: Inhibition of edema, 1 hr) of 30.4%. For the same molecule, the inhibition at 3 mg/kg (edema in left hind paw [2]; read-out: Inhibition of edema, 24 hrs) was 8.1% and the inhibition at 3 mg/kg (edema in left hind paw [2]; read-out: Inhibition of edema, 48 hrs) was 0.8%.
With CC(C)=Cc1ccc(C(C)C(=O)O)cc1 (centres unmarked) [Control 4, 2-[4-(2,2-dimethylvinyl)phenyl]propionic acid] the inhibition at 6 mg/kg (edema in left hind paw [2]; [6]) was 59.3%, the inhibition at 6 mg/kg (edema in left hind paw [2]; [7]) was -8.5% and the inhibition at 6 mg/kg (edema in left hind paw [2]; [8]) was 3.7%.
Work on CCOC(=O)CNC(=O)C(C)c1ccc(C=C(Cl)Cl)cc1 (centres unmarked) [ST-23, N-{2-[4-(2,2-Dichlorovinyl)phenyl]propionyl}glycine ethyl ester] yielded an inhibition at 6 mg/kg (edema in left hind paw [1]; [3]) of 35.5%.
For CCC(=O)OC(C)OC(=O)C(C)c1ccc(C=C(Cl)Cl)cc1 (centres unmarked) [ST-47, 1-(Propionyloxy)ethyl 2-[4-(2,2-dichlorovinyl)phenyl]propionate], the inhibition at 6 mg/kg (edema in left hind paw [1]; [3]) was 49.9%.
Work on CC(C(=O)OCc1ccccn1)c1ccc(C=C(Cl)Cl)cc1 (centres unmarked) [ST-44, 2-Pyridylmethyl 2-[4-(2,2-dichlorovinyl)phenyl]propionate] yielded an inhibition at 6 mg/kg (edema in left hind paw [1]; [3]) of 59.8%.
With CC(C(=O)O)c1ccc(C=C(Cl)Cl)cc1 (centres unmarked) [ST-38, morpholinium 2-[4-(2,2-dichlorovinyl)phenyl]propionate] the Inhibition of edema (edema in left hind paw [1]; [4]) was 35.6%.
CC(C(=O)O)c1ccc(C=C(Cl)Cl)c(Cl)c1 (centres unmarked) [ST-9, 2-[3-Chloro-4-(2,2-dichlorovinyl)phenyl]propionic acid] showed an inhibition at 6 mg/kg (edema in left hind paw [1]; [3]) of 58%.
CC(C(=O)Nc1ccccn1)c1ccc(C=C(Cl)Cl)cc1 (centres unmarked) [ST-22, N-(2-Pyridyl)-2-[4-(2,2-dichlorovinyl)phenyl]propionamide] showed an inhibition at 6 mg/kg (edema in left hind paw [1]; [3]) of 35.5%.
Work on COCOC(=O)C(C)c1ccc(C=C(Cl)Cl)cc1 (centres unmarked) [ST-43, Methoxymethyl 2-[4-(2,2-dichlorovinyl)phenyl]propionate] yielded an inhibition at 6 mg/kg (edema in left hind paw [1]; [3]) of 37.1%.
CN1C(C(=O)Nc2ccccn2)=C(O)c2ccccc2S1(=O)=O [Control 3, piroxicam] showed an inhibition at 1.5 mg/kg (edema in left hind paw [2]; [6]) of 48.6%, an inhibition at 1.5 mg/kg (edema in left hind paw [2]; [7]) of 13.3% and an inhibition at 1.5 mg/kg (edema in left hind paw [2]; [8]) of 2.1%.
Molecule CC(C(=O)Nc1ccc(C(=O)O)cc1)c1ccc(C=C(Cl)Cl)cc1 (centres unmarked) [ST-20, 4-{2-[4-(2,2-Dichlorovinyl)phenyl]propionylamino}benzoic acid] has an inhibition at 6 mg/kg (edema in left hind paw [1]; [3]) of 47%.
